Experimental data taken from US11414395B2, “Heterocyclic compounds as modulators of mGluR7” (PRAGMA Therapeutics, priority 2017, dated 2022).

Target: human mGluR7 (Homo sapiens (Human), UniProt Q14831)
Assay: Inositol monophosphate production assay (IP1 assay), inhibition of L-AP4 response
Assay type: cell-based
Settings: mean IC50 from at least two independent experiments; HEK293 cells transiently transfected with mGluR7, Gqtop and EAAC1; IP1 production vs EC80 L-AP4
Procedure, shortened: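 HEK293 cells transiently co-expressing mGluR7, chimeric Gq/Gi (Gqtop) and EAAC1, switched to Glutamax medium 3 h before stimulation. IP1 measured by competitive HTRF; inhibition of an EC80-equivalent L-AP4 response, triplicate points, four-parameter fit to log IC50, mean of ≥2 experiments.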

Sequence of human mGluR7 (Q14831 35-915): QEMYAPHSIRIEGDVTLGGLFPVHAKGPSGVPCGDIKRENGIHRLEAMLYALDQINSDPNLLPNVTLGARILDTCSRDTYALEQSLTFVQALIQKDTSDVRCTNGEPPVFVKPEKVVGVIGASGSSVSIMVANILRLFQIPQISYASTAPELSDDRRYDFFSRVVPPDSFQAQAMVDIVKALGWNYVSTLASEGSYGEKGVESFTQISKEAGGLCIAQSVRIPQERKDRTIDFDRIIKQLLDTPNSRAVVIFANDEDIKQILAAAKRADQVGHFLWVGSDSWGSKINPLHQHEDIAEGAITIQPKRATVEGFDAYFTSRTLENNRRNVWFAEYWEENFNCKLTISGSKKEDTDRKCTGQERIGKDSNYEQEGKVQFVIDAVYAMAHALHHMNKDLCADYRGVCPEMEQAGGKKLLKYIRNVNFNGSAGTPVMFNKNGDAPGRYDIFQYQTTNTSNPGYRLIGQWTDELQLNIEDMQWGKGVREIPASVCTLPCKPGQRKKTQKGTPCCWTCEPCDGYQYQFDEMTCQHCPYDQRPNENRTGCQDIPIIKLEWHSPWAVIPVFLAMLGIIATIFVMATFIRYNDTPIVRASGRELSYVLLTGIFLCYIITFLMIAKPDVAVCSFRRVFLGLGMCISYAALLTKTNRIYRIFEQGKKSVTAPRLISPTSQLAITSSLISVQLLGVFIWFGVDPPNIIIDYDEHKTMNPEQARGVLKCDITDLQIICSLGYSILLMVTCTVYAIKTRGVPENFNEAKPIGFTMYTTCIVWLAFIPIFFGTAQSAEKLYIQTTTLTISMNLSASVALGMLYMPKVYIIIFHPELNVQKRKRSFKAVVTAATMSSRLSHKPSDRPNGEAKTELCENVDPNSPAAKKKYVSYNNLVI

Row | SMILES | IC50 [nM]
1 | COc1cnc(-n2ncc3c(c2=O)CCC(c2cccc(OC)c2C)C3)cn1 (stereo not shown) [Example 44, 6-(3-methoxy-2-methylphenyl)-2-(5-methoxypyrazin-2-yl)-5,6,7,8-tetrahydrophthalazin-1(2H)-one] | < 500
2 | COc1cccc(C2CCc3c(cnn(-c4nccc(N5CCOCC5)n4)c3=O)C2)c1C (stereo not shown) [Example 46, 6-(3-methoxy-2-methylphenyl)-2-(4-morpholinopyrimidin-2-yl)-5,6,7,8-tetrahydrophthalazin-1(2H)-one] | < 500
3 | COc1cccc(C2CCc3c(cnn(-c4ccccn4)c3=O)C2)c1 (stereo not shown) [Example 2, 6-(3-methoxyphenyl)-2-(pyridin-2-yl)-5,6,7,8-tetrahydrophthalazin-1(2H)-one] | 500 to 1000
4 | COc1cccc(C2CCc3c(cnn(-c4ncc(C)cn4)c3=O)C2)c1C (stereo not shown) [Example 41, 6-(3-methoxy-2-methylphenyl)-2-(5-methylpyrimidin-2-yl)-5,6,7,8-tetrahydrophthalazin-1(2H)-one] | < 500
5 | Cc1ccc(C2CCc3c(cnn(-c4ncc(Cl)cn4)c3=O)C2)c(C)c1 (stereo not shown) [Example 51, 2-(5-chloropyrimidin-2-yl)-6-(2,4-dimethylphenyl)-5,6,7,8-tetrahydrophthalazin-1(2H)-one] | < 500
6 | Cc1ccc(N2CCCC2)cc1C1CCc2c(cnn(-c3ncccn3)c2=O)C1 (stereo not shown) [Example 77, 6-(2-methyl-5-(pyrrolidin-1-yl)phenyl)-2-(pyrimidin-2-yl)-5,6,7,8-tetrahydrophthalazin-1(2H)-one] | < 500
7 | COc1ccc(C)c(C2CCc3c(cnn(-c4ncc(C)cn4)c3=O)C2)c1 (stereo not shown) [Example 47, 6-(5-methoxy-2-methylphenyl)-2-(5-methylpyrimidin-2-yl)-5,6,7,8-tetrahydrophthalazin-1(2H)-one] | < 500
8 | Cc1ccc(C2CCc3c(cnn(-c4cc(F)ccn4)c3=O)C2)c(C)c1 (stereo not shown) [Example 11, 6-(2,4-dimethylphenyl)-2-(4-fluoropyridin-2-yl)-5,6,7,8-tetrahydrophthalazin-1(2H)-one] | < 500
9 | COc1c(C)cccc1C1CCc2c(cnn(-c3ncccn3)c2=O)C1 (stereo not shown) [Example 71, 6-(2-methoxy-3-methylphenyl)-2-(pyrimidin-2-yl)-5,6,7,8-tetrahydrophthalazin-1(2H)-one] | 500 to 1000
10 | Cc1ccc(C2CCc3c(cnn(-c4cccc(C)n4)c3=O)C2)c(C)c1 (stereo not shown) [Example 17, 6-(2,4-dimethylphenyl)-2-(6-methylpyridin-2-yl)-5,6,7,8-tetrahydrophthalazin-1(2H)-one] | < 500
11 | COc1ccc(C)cc1C1CCc2c(cnn(-c3ncccn3)c2=O)C1 (stereo not shown) [Example 76, 6-(2-methoxy-5-methylphenyl)-2-(pyrimidin-2-yl)-5,6,7,8-tetrahydrophthalazin-1(2H)-one] | < 500
12 | Cc1ccc(C2CCc3c(cnn(-c4nccs4)c3=O)C2)c(C)c1 (stereo not shown) [Example 32, 6-(2,4-dimethylphenyl)-2-(thiazol-2-yl)-5,6,7,8-tetrahydrophthalazin-1(2H)-one] | 500 to 1000
13 | COc1ccc(C(F)(F)F)c(C2CCc3c(cnn(-c4ncccn4)c3=O)C2)c1 (stereo not shown) [Example 73, 6-(5-methoxy-2-(trifluoromethyl)phenyl)-2-(pyrimidin-2-yl)-5,6,7,8-tetrahydrophthalazin-1(2H)-one] | 1000 to 30000
14 | CC(=O)c1ccc(C2CCc3c(cnn(-c4ncccn4)c3=O)C2)c(C)c1 (stereo not shown) [Example 99, 6-(4-acetyl-2-methylphenyl)-2-(pyrimidin-2-yl)-5,6,7,8-tetrahydrophthalazin-1(2H)-one] | 1000 to 30000
15 | COCCOc1cnc(-n2ncc3c(c2=O)CCC(c2cccc(OC)c2C)C3)nc1 (stereo not shown) [Example 118, 6-(3-methoxy-2-methylphenyl)-2-(5-(2-methoxyethoxy)pyrimidin-2-yl)-5,6,7,8-tetrahydrophthalazin-1(2H)-one] | < 500
16 | Cc1ccc(C2CCc3c(cnn(-c4ncccc4C)c3=O)C2)c(C)c1 (stereo not shown) [Example 20, 6-(2,4-dimethylphenyl)-2-(3-methylpyridin-2-yl)-5,6,7,8-tetrahydrophthalazin-1(2H)-one] | < 500
17 | COc1cc(C2CCc3c(cnn(-c4ccccn4)c3=O)C2)ccc1C (stereo not shown) [Example 64, 6-(3-methoxy-4-methylphenyl)-2-(pyridin-2-yl)-5,6,7,8-tetrahydrophthalazin-1(2H)-one] | 1000 to 30000
18 | Cc1ccc(C2CCc3c(cnn(-c4ncc(C(F)(F)F)cn4)c3=O)C2)c(C)c1 (stereo not shown) [Example 55, 6-(2,4-dimethylphenyl)-2-(5-(trifluoromethyl)pyrimidin-2-yl)-5,6,7,8-tetrahydrophthalazin-1(2H)-one] | < 500
19 | COCCCOc1cccc(C2CCc3c(cnn(-c4ncccn4)c3=O)C2)c1C (stereo not shown) [Example 100, 6-(3-(3-methoxypropoxy)-2-methylphenyl)-2-(pyrimidin-2-yl)-5,6,7,8-tetrahydrophthalazin-1(2H)-one] | < 500
